Data on 12 compounds can be found in ChEMBL document CHEMBL4219088, “Novel 4-aminoquinazoline derivatives induce growth inhibition, cell cycle arrest and apoptosis via PI3Kα inhibition” (Bioorg Med Chem, 2018).

Each structure is given as a SMILES string. pIC50: −log10 of the molar value.

Holding throughout (format): functional, cell-based
The subject of one assay is HCT-116. Description: Antiproliferative activity against human HCT116 cells after 72 hrs by sulforhodamine B assay. To be noted: HCT-116, 72 h. In general terms: In SRB staining, fixed cells bind dye roughly in proportion to their protein.
The next assay concerns SK-HEP1. Description: Antiproliferative activity against human SKHEP1 cells after 72 hrs by sulforhodamine B assay. The settings on record: SK-HEP1, 72 h.
A further assay relates to MDA-MB-231. Kind of assay: Antiproliferative activity against human MDA-MB-231 cells after 72 hrs by sulforhodamine B assay. To be noted: MDA-MB-231, 72 h.
The subject of the next assay is SNU-638. Description: Antiproliferative activity against human SNU638 cells after 72 hrs by sulforhodamine B assay. To be noted: SNU-638, 72 h.
A further assay deals with A549. Description: Antiproliferative activity against human A549 cells after 72 hrs by sulforhodamine B assay. To be noted: A549, 72 h.
For another assay, the system named is MCF7. Description: Antiproliferative activity against human MCF7 cells after 72 hrs by sulforhodamine B assay. To be noted: MCF7, 72 h.

Usually pIC50 stands for the negative decadic logarithm of the IC50, by convention in mol/L. A low value points to a large IC50. `COc1ncc(-c2ccc3ncnc(NCc4ccncc4)c3c2)cc1NS(=O)(=O)c1ccc(F)cc1F`: the pIC50 in the assay with HCT-116 is 4.75; with SK-HEP1, 4.91; with MDA-MB-231, 5.01; in the assay with SNU-638, 5.21; with A549, 4.94; in the assay on MCF7, 4.65.

Take `CCCCS(=O)(=O)Nc1cc(-c2ccc3ncnc(NCCN4CCOCC4)c3c2)cnc1OC`: the pIC50 in the assay on HCT-116 is 6.23; with SK-HEP1, 6.36; in the assay on MDA-MB-231, 6.38; with SNU-638, 6.21; in the assay with A549, 5.81; in the assay with MCF7, 4.97.

Turning to `CCCCS(=O)(=O)Nc1cc(-c2ccc3ncnc(NCCCN4CCOCC4)c3c2)cnc1OC`, the pIC50 with HCT-116 was 5.76; in the assay with SK-HEP1, 5.94; in the assay on MDA-MB-231, 5.59; in the assay with SNU-638, 6.01; with A549, 5.50; in the assay on MCF7, 5.34.

Regarding `COc1ncc(-c2ccc3ncnc(NCCCN4CCOCC4)c3c2)cc1NS(=O)(=O)c1ccc(F)cc1F`, the pIC50 in the assay on HCT-116 is 4.73; in the assay on SK-HEP1, 4.87; in the assay with MDA-MB-231, 5.05; in the assay on SNU-638 it was 5.34; in the assay on A549, 5.01; in the assay with MCF7, 4.87.

Turning to `Cn1c(=O)n(-c2ccc(C(C)(C)C#N)cc2)c2c3cc(-c4cnc5ccccc5c4)ccc3ncc21` [DACTOLISIB], the pIC50 in the assay on MDA-MB-231 was 6.74.

As for `COc1ncc(-c2ccc3ncnc(NCCN(C)C)c3c2)cc1NS(=O)(=O)c1ccc(F)cc1F`, the pIC50 in the assay on HCT-116 was 5.84; in the assay on SK-HEP1, 5.33; in the assay on MDA-MB-231 it was 6.15; with SNU-638, 6.21; in the assay on A549, 6.03; with MCF7, 5.99.

Regarding `CCCCS(=O)(=O)Nc1cc(-c2ccc3ncnc(NCCCN(C)C)c3c2)cnc1OC`, the pIC50 was 6.31 in the assay with HCT-116; 6.07 in the assay on SK-HEP1; 6.06 with MDA-MB-231; 5.90 in the assay with SNU-638; 5.45 in the assay with A549; 5.33 in the assay on MCF7.

With `COc1ncc(-c2ccc3ncnc(NCCN(C)C)c3c2)cc1NS(=O)(=O)c1ccc(F)cc1`, the pIC50 was 5.49 in the assay on HCT-116; 5.02 in the assay on SK-HEP1; 5.91 in the assay on MDA-MB-231; 5.92 in the assay on SNU-638; 5.62 in the assay on A549; 5.91 in the assay with MCF7.

Consider `COc1ncc(-c2ccc3ncnc(NCCN(C)C)c3c2)cc1NS(C)(=O)=O`, for which the pIC50 in the assay on HCT-116 was 4.87; in the assay on SK-HEP1, 4.90; in the assay with MDA-MB-231 it was 5.63; in the assay on SNU-638, 6.39; in the assay with A549, 5.39; with MCF7 it was 4.83.

With `CCCCS(=O)(=O)Nc1cc(-c2ccc3ncnc(NCc4ccncc4)c3c2)cnc1OC`, the pIC50 is 5.24 in the assay on HCT-116; 5.05 in the assay on SK-HEP1; 5.36 with MDA-MB-231; 5.18 with SNU-638; 5.03 in the assay on A549; 4.73 in the assay on MCF7.

On to `COc1ncc(-c2ccc3ncnc(NCCN4CCOCC4)c3c2)cc1NS(=O)(=O)c1ccc(F)cc1F`, for which the pIC50 in the assay with HCT-116 is 5.56; in the assay with SK-HEP1 it was 6.08; in the assay on MDA-MB-231, 6.42; in the assay on SNU-638, 5.40; in the assay on A549 it was 6.21; in the assay on MCF7, 4.54.

For `COc1ncc(-c2ccc3ncnc(NCCCN(C)C)c3c2)cc1NS(=O)(=O)c1ccc(F)cc1F`, the negative logarithm of the IC50 (pIC50) in the assay with HCT-116 was 5.66; with SK-HEP1, 5.33; in the assay with MDA-MB-231, 5.81; in the assay on SNU-638, 5.90; in the assay with A549, 5.56; in the assay with MCF7, 5.44.
